From article PMC12557437, “Research towards selective inhibition of the CLK3 kinase” (Beilstein Journal of Organic Chemistry, 2025)

Columns and labels:
Type in all cases: biochemical
Hs_CDK5/p25 = Hs_CDK5/p25 (Homo sapiens, UniProt Q00535); experiment: primary screening, short panel of mammalian kinases; settings: ATP 10 µM, means, n = 2, read-out: Residual kinase activity Hs_CDK5/p25
Excerpt: (§1) Our molecules have been submitted first to a primary screening against a panel of eight disease-related kinases: five members of the CMGC (for CDK, MAPK, GSK3, and CLK) group (CDK5/p25, CDK9/CyclinT, GSK3β, CLK1 and DYRK1A), one CAMK (calmodulin/calcium regulated kinase PIM1), one CK1 (the casein kinase CK1ε), and haspin as a […] kinase.
(§2) Figure 4 Primary evaluation of the inhibition of the new quinazolines against a short panel of mammalian kinases. Residual kinase activities are expressed in % of maximal activity, i.e., measured in the absence of inhibitor but with an equivalent dose of DMSO (solvent of the tested compounds). ATP concentration used in the kinase assays was 10 µM (values are means, n = 2). Kinases are from human origin (Homo sapiens) except CLK1 (from Mus musculus) and DYRK1A (from Rattus norvegicus). […]

Hs_CDK9/CyclinT = Hs_CDK9/CyclinT (Homo sapiens, UniProt P50750); experiment: as above; settings: ATP 10 µM, means, n = 2, read-out: Residual kinase activity Hs_CDK9/CyclinT
Excerpt: as §1, §2

Hs_CK1ε = Hs_CK1ε (Homo sapiens, UniProt P49674); experiment: as above; settings: ATP 10 µM, means, n = 2, read-out: Residual kinase activity Hs_CK1ε
Excerpt: as §1, §2

Hs_GSK3β = Hs_GSK3β (Homo sapiens, UniProt P49841); experiment: as above; settings: ATP 10 µM, means, n = 2, read-out: Residual kinase activity Hs_GSK3β
Excerpt: as §1, §2

Hs_HASPIN = biological target: T1, Hs_HASPIN (Homo sapiens, UniProt Q8TF76); experiment: as above; settings: ATP 10 µM, means, n = 2, read-out: Residual kinase activity Hs_HASPIN
T1 sequence (Q8TF76 1-798): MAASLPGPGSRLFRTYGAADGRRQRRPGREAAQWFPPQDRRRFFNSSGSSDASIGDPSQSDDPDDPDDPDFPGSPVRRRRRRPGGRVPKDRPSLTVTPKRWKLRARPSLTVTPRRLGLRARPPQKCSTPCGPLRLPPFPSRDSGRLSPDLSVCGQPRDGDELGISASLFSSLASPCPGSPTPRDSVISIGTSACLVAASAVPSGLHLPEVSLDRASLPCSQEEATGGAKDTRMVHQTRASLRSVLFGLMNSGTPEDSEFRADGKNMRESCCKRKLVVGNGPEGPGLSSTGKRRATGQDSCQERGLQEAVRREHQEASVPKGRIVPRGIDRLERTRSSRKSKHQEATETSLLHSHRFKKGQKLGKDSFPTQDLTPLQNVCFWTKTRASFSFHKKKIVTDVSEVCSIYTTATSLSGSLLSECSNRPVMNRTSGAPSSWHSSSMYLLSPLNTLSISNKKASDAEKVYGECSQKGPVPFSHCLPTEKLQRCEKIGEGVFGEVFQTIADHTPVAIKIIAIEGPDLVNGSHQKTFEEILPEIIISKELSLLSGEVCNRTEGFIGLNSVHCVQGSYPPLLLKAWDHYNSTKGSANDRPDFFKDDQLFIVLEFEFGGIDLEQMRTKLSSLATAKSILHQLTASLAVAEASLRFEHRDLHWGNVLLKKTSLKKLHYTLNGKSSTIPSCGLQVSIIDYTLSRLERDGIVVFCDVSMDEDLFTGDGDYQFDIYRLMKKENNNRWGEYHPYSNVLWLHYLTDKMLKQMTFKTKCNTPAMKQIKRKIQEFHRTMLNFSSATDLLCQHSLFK
Excerpt: as §1, §2

Hs_PIM1 = Hs_PIM1 (Homo sapiens, UniProt P11309); experiment: as above; settings: ATP 10 µM, means, n = 2, read-out: Residual kinase activity Hs_PIM1
Excerpt: as §1, §2

Mm_CLK1 [1] = biological target: T2, Mm_CLK1 (Mus musculus, UniProt P22518); experiment: as above
Excerpt: as §1, §2

Rn_DYRK1A = Rn_DYRK1A (Rattus norvegicus, UniProt Q63470); experiment: as above; settings: ATP 10 µM, means, n = 2, read-out: Residual kinase activity Rn_DYRK1A
Excerpt: as §1, §2

Mm_CLK1 [2] = biological target: T2, Mm_CLK1; experiment: radiometric γ33P-ATP kinase assay (Eurofins)
Procedure: (§3) The results are reported in Table 2 and in Supporting Information File 1.
(§4) 2- Kinase inhibition studies
(§5) Kinase enzymatic activities were assayed using both luminescent ADP detection assay
(§6) (ADP-GloTM assay kit, Promega, Madison, WI) or radiometric kinase assay. These
(§7) assays were performed using the protocols described in our previous publication. […]
(§8) 1.Brahmaiah, D.; Kanaka Durga Bhavani, A.; Aparna, P.; Sampath Kumar, N.; Solhi,
(§9) H.; Le Guevel, R.; Baratte, B.; Ruchaud, S.; Bach, S.; Singh Jadav, S.; Raji Reddy, C.;
(§10) Roisnel, T.; Mosset, P.; Levoin, N.; Grée, R. Bioorg.
(§11) R.; Baratte, B.; Robert, T.; Ruchaud, S.; Bach, S.; Jadav, S. S.; Reddy, C. […]

Mm_CLK2 = Mm_CLK2 (Mus musculus, UniProt O35491); experiment: radiometric γ33P-ATP kinase assay (Eurofins)
Procedure: as §3, §4, §5, §6, §7, §8, §9, §10, §11

Mm_CLK4 = Mm_CLK4 (Mus musculus, UniProt O35493); experiment: radiometric γ33P-ATP kinase assay (Eurofins)
Procedure: as §3, §4, §5, §6, §7, §8, §9, §10, §11

Hs_DYRK1B = biological target: T3, Hs_DYRK1B (Homo sapiens, UniProt Q9Y463); experiment: radiometric γ33P-ATP kinase assay (Eurofins); settings: 15 µM ATP; dose-response, points in duplicate
T3 construct: purchased Eurofins, UK
Procedure: (§12) Finally, in order to complete our profiling of VS-77, we then measured its activity against the DYRK 1A, DYRK1B and DYRK2 kinases and the results are reported in Table 3.
as §4, §5, §6, §7, §8, §9, §10
(§13) R.; Baratte, B.; Robert, T.; Ruchaud, S.; Bach, S.; Jadav, S. S.; Reddy, C. R.; Mosset,
(§14) P.; Gouault, N.; Levoin, N.; Grée, R. Molecules 2022, 27, 6149. […]

Hs_DYRK2 = biological target: T4, Hs_DYRK2 (Homo sapiens, UniProt Q92630); experiment: radiometric γ33P-ATP kinase assay (Eurofins); settings: 15 µM ATP; dose-response, points in duplicate
T4 construct: purchased Eurofins, UK
Procedure: as §12, §4, §5, §6, §7, §8, §9, §10, §13, §14

[3] = 15 µM ATP, dose-response, points in duplicate

T2 sequence (P22518 whole entry): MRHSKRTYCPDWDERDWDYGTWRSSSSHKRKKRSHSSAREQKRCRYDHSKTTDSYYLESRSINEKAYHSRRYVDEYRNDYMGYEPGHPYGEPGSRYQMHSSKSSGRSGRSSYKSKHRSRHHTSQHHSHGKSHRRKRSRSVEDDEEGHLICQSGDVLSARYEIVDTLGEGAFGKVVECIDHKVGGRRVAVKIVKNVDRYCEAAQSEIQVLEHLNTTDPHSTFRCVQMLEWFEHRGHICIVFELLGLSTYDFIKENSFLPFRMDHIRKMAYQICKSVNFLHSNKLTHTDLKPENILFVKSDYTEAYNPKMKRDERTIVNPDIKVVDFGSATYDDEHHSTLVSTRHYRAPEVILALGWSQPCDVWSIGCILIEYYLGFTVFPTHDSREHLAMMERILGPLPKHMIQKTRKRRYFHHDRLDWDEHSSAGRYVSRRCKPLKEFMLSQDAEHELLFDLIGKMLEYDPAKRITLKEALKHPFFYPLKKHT
Mm_CLK4, sequence (O35493 whole entry): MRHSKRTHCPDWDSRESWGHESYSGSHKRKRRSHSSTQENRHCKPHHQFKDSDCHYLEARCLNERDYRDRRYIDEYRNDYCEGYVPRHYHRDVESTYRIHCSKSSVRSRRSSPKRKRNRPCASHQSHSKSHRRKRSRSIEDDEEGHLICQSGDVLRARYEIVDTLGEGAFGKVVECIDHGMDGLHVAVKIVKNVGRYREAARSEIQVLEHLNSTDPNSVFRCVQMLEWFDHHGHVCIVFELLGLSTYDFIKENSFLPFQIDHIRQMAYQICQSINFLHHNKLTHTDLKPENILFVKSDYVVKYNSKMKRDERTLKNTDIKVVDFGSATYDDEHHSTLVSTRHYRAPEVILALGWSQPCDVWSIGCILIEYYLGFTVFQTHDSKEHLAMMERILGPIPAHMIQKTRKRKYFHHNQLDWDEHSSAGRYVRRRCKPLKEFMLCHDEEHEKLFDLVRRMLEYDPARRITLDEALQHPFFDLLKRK
Mm_CLK2, sequence (O35491 whole entry): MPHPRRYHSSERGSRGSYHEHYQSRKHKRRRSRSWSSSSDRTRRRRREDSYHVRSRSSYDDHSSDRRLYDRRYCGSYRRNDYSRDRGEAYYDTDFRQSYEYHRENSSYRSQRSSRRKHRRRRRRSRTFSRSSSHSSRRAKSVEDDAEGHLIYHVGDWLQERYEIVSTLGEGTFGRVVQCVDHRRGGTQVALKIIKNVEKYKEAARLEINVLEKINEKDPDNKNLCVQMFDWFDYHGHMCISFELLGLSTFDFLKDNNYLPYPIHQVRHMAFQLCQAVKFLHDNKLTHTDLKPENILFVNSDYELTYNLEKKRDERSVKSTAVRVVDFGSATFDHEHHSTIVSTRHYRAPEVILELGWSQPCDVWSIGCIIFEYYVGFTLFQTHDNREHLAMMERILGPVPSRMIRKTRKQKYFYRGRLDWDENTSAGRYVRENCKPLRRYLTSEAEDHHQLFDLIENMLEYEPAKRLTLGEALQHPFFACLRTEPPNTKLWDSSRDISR
Hs_CDK9/CyclinT, sequence (P50750 whole entry): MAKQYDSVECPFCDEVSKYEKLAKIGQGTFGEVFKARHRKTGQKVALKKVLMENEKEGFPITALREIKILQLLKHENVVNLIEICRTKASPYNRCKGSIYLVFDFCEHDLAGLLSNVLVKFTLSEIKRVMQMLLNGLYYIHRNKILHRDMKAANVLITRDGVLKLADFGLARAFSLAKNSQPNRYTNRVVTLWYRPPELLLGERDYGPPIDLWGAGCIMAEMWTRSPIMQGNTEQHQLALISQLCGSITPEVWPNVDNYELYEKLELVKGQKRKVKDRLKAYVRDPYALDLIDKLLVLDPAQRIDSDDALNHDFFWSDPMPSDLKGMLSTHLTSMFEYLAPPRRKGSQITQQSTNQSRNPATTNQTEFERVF
Hs_CDK9/CyclinT, sequence (O60563 whole entry partner): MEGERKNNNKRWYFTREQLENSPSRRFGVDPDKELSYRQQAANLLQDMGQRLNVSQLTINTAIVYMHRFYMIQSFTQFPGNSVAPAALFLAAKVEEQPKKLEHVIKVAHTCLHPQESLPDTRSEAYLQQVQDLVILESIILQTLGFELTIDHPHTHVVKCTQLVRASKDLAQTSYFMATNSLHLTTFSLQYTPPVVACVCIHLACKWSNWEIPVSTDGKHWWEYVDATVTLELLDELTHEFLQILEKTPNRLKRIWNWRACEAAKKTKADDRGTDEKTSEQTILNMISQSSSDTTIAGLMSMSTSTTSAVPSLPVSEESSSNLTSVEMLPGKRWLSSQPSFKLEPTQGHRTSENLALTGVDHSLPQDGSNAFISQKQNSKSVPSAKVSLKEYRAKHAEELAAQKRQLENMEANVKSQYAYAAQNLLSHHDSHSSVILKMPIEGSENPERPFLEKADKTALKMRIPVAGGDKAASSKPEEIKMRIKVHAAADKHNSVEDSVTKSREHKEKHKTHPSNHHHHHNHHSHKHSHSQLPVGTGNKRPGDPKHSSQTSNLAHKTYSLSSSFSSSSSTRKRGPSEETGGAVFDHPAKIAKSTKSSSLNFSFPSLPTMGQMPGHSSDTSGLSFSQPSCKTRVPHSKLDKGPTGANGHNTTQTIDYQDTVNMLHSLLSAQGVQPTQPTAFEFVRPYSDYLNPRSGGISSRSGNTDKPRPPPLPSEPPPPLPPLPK
Hs_PIM1, sequence (P11309 whole entry): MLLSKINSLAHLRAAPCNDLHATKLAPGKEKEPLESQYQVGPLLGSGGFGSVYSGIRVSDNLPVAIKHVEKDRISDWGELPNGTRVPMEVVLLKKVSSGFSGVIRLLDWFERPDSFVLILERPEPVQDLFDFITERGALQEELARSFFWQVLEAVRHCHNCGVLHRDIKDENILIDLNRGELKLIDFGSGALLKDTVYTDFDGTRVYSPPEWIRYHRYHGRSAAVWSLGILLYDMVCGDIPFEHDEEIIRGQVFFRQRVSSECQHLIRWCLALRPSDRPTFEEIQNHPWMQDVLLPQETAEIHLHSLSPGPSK
Hs_CDK5/p25, sequence (Q00535 whole entry): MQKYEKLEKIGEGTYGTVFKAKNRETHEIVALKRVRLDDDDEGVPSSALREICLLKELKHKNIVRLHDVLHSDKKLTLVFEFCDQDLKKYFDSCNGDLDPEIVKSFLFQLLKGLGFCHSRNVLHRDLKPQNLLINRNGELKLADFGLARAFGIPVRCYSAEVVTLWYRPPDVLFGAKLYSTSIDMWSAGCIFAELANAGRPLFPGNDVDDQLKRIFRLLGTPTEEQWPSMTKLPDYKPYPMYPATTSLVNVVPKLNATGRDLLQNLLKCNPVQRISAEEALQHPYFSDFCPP
Hs_CDK5/p25, sequence (Q15078 99-307 partner limits assumed): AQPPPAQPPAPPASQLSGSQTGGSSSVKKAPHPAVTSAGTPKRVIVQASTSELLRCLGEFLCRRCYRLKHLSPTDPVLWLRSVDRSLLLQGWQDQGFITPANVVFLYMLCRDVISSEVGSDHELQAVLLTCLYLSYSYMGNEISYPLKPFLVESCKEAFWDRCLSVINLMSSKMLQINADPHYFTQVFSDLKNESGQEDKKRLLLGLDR
Hs_CK1ε, sequence (P49674 whole entry): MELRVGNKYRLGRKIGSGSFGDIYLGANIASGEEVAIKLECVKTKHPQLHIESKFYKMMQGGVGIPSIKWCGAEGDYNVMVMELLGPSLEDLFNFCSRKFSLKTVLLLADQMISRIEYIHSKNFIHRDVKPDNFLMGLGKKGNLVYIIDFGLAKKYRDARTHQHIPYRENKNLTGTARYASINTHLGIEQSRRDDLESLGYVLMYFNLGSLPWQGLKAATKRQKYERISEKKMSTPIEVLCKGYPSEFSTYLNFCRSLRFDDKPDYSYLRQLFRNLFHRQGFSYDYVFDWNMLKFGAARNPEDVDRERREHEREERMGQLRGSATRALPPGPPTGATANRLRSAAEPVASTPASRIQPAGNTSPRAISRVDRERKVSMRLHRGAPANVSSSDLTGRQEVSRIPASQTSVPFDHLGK
Hs_GSK3β, sequence (P49841 whole entry): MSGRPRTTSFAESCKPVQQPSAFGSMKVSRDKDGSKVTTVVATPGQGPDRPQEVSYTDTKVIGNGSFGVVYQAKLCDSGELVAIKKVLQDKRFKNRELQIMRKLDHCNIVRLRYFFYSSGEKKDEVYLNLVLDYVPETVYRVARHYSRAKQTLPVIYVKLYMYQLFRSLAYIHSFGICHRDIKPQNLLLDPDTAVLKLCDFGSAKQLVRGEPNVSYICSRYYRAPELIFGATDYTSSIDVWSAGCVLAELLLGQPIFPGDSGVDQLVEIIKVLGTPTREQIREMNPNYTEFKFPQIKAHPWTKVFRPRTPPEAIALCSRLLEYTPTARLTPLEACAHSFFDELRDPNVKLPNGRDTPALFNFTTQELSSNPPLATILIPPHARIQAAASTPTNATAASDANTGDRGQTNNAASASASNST
T4 sequence (Q92630 whole entry): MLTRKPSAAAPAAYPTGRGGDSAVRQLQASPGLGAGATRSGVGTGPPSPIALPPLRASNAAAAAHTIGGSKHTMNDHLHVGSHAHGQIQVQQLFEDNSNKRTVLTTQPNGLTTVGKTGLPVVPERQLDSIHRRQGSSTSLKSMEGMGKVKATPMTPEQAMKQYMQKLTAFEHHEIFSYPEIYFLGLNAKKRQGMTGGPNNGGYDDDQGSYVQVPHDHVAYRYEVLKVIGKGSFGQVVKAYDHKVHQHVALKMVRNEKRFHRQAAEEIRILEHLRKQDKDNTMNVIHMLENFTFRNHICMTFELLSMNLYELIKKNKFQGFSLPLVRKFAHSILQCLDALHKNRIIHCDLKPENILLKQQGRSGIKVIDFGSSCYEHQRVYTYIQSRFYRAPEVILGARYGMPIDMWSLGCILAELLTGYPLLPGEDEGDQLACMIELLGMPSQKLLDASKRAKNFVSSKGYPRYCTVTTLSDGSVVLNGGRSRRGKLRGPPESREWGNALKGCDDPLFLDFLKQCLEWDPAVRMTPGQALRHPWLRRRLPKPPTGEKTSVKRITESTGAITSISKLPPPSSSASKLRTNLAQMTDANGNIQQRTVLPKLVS

remaining activity at 1 µM (Hs_CDK5/p25; compound 1 μM): 92% | remaining activity at 10 µM (Hs_CDK5/p25; compound 10 μM): 37% | remaining activity at 1 µM (Hs_CDK9/CyclinT; compound 1 μM): 83% | remaining activity at 10 µM (Hs_CDK9/CyclinT; compound 10 μM): 47% | remaining activity at 1 µM (Hs_CK1ε; compound 1 μM): ≥ 100% | remaining activity at 10 µM (Hs_CK1ε; compound 10 μM): ≥ 100% | remaining activity at 1 µM (Hs_GSK3β; compound 1 μM): ≥ 100% | remaining activity at 10 µM (Hs_GSK3β; compound 10 μM): 43% | remaining activity at 1 µM (Hs_HASPIN; compound 1 μM): 74% | remaining activity at 10 µM (Hs_HASPIN; compound 10 μM): 74% | remaining activity at 1 µM (Hs_PIM1; compound 1 μM): 88% | remaining activity at 10 µM (Hs_PIM1; compound 10 μM): ≥ 100% | activity against CLK1 in primary screening (Mm_CLK1 [1]; 1 and 10 µM): significant activity against CLK1 | remaining activity at 1 µM (Mm_CLK1 [1]; compound 1 μM, ATP 10 µM, means, n = 2, read-out: Residual kinase activity Mm_CLK1): 20% | remaining activity at 10 µM (Mm_CLK1 [1]; compound 10 μM, ATP 10 µM, means, n = 2, read-out: Residual kinase activity Mm_CLK1): 11% | remaining activity at 1 µM (Rn_DYRK1A; compound 1 μM): 92% | remaining activity at 10 µM (Rn_DYRK1A; compound 10 μM): 62% | IC50 (Mm_CLK1 [2]; [3]): 127 nM | Mm_CLK3/Mm_CLK1 (Mm_CLK1 [2]; ratio of IC50 values): 2.38 | IC50 (Mm_CLK2; [3]): 61 nM | Mm_CLK3/Mm_CLK2 (Mm_CLK2; ratio of IC50 values): 4.97 | IC50 (Mm_CLK4; [3]): 62 nM | Mm_CLK3/Mm_CLK4 (Mm_CLK4; ratio of IC50 values): 4.89 | IC50 (Hs_DYRK1B): 4600 nM | IC50 (Hs_DYRK2): 11700 nM
SMILES: Cc1ccc(-n2cc(COc3cccc4cnc(Nc5cc(Cl)cc(-c6cccc(C(=O)O)c6)c5)nc34)nn2)c([N+](=O)[O-])c1 [Compound 13b]
